This test deals with cluster 1 type streptokinase (Streptococcus pyogenes, UniProt P10520). It counts as biochemical, group A streptococcal strain A328. As to conditions: supernatant-based; for IC50: cluster 1; for fold lower IC50-values than TXA and EACA: cluster 1 type streptokinase. How it is done:
An overnight culture of the strain A328 (cluster 1 type) or A614 (cluster 2a type) was diluted 1:10 in pre-warmed THY medium and grown to an OD600 of around 0.5 at 37 °C. […] The pellet was resuspended in Tris-HCl buffer (50 mM Tris pH 7.5). Then inhibitory compounds (LA, PA, oleic, myristic, stearic, palmitic, arachidonic, arachidic, linolenic acid, TXA or EACA) were added. Stocks of TXA and EACA were prepared in PBS. Stocks of LA and PA were prepared in methanol and then diluted in PBS. Stocks of arachidic, oleic, arachidonic, myristic, palmitic, stearic and linolenic acid were prepared in 60% DMSO/PBS and then diluted in PBS. The untreated control received the same amount of PBS as in case of TXA and EACA as control or the same amount of methanol diluted in PBS as in case of LA and PA, respectively, or the same amount of DMSO diluted in PBS as in case of the other commercially available fatty acids. […] The assay was run at 37 °C. The absorption was measured at the beginning of the reaction and then every hour at 405 nm after 3 sec of shaking on a Tecan Sunrise ELISAReader using Magellan software. Each experiment was repeated three times. IC50 values were calculated using Microsoft® Excel software.

Values joined by “and” are separate entries in the source; they are usually repeats but may differ in a detail not shown here. Identical values can stand only once.

cluster 1 type streptokinase, sequence (P00747 20-810): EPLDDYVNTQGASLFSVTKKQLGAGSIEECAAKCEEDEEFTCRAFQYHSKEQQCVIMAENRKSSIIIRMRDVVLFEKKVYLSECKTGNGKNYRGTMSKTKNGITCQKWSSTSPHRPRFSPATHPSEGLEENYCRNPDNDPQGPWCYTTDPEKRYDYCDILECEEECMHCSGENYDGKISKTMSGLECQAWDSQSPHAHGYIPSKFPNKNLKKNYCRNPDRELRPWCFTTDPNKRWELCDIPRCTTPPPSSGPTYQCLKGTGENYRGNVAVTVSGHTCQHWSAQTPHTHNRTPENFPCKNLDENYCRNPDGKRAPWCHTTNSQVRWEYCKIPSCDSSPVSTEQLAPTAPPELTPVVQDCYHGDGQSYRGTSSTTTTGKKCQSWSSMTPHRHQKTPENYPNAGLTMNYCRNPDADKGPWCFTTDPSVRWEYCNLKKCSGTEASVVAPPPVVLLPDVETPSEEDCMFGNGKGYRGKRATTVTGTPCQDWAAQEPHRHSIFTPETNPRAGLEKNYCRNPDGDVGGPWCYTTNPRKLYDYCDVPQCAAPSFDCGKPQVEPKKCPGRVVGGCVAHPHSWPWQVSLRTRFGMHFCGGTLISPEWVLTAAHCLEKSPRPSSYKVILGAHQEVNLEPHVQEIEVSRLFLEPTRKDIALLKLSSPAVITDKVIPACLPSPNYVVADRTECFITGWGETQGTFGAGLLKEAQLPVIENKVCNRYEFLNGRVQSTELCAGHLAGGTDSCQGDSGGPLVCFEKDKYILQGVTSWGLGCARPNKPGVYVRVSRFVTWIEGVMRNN
cluster 1 type streptokinase, sequence (P10520 27-440): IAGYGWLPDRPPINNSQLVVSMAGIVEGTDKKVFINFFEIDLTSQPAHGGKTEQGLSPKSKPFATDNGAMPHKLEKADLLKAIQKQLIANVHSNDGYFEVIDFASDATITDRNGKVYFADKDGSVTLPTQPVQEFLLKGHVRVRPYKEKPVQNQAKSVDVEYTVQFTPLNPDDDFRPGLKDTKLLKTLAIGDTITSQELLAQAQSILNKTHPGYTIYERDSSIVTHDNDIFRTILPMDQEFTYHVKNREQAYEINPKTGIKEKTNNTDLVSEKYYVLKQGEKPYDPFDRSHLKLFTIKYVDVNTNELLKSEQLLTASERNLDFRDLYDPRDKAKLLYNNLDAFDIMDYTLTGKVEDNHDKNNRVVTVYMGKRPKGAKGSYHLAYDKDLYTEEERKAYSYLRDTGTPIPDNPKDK

What is called IC50 is the concentration needed to halve the response being measured. High values mean a need for much substance, low ones inhibition by little substance. Turning to `CCCCC/C=C\C/C=C\CCCCCCCC(=O)O` [LA, linoleic acid], the IC50 was 46.6 µM and 46 µM; the “fold lower IC50-values than TXA and EACA” value was 500–1000 fold.
For the molecule `CCCCCC/C=C\CCCCCCCC(=O)O` [PA, palmitoleic acid], it took 40.9 µM to reach half-maximal inhibition (IC50); the “fold lower IC50-values than TXA and EACA” value is on record as 500–1000 fold.
